This is an account of results in article PMC8745332, “Synthesis, Molecular Docking and Biological Characterization of Pyrazine Linked 2-Aminobenzamides as New Class I Selective Histone Deacetylase (HDAC) Inhibitors with Anti-Leukemic Activity” (International Journal of Molecular Sciences, 2021).

In data set [1] the test system is HDAC3. Conditions: read-out: IC50 (HDAC3); cited from earlier work.
Data set [2] has as its system HDAC2. Conditions: read-out: IC50 (HDAC2); previously reported, Figure 1; cited from earlier work.
The target in data set [3] is T1, human HDAC2 (Homo sapiens, UniProt Q92769).
T1 construct: purchased ENZO Life Sciences AG (Lausen, CH)
T1 sequence (Q92769 whole entry): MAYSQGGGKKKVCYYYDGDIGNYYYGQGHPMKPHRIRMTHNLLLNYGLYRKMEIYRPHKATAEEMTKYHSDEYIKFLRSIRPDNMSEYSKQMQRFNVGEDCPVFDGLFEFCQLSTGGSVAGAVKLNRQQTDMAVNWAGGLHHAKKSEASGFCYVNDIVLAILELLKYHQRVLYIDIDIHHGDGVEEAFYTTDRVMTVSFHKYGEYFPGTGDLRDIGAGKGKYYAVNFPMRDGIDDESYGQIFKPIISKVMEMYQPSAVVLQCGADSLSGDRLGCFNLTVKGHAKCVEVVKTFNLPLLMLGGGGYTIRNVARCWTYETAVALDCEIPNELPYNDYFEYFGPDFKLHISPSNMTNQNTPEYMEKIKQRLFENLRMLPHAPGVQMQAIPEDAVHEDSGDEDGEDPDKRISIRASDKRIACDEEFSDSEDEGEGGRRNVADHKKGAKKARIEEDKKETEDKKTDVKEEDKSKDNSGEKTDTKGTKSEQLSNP
As to the kind of experiment: In vitro HDAC2 inhibition assay, fluorogenic p53 peptide Ac-RHKK(Acetyl)-AMC. The class given is biochemical. The following applies: for IC50: 3 nM HDAC2, 20 µM substrate, 30 min, 37 °C; for inhibition at 2 µM: read-out: HDAC2 % inhibition @ 2 µM. The method, then:
(§1) Recombinant human HDAC1, HDAC2, and HDAC3/NCOR1 were purchased from ENZO Life Sciences AG (Lausen, CH). Recombinant human HDAC 4, HDAC5, HDAC7, HDAC9 and HDAC11 were produced by Barinka lab in Prague, as described before. Recombinant human HDAC8 was produced by Romier et al. (IGBMC, Univ. Strasbourg), as described in [55].
(§2) The in vitro testing on recombinant HDACs 1-3 were performed with a fluorogenic peptide derived from p53 (Ac-RHKK(Acetyl)-AMC). The measurements were performed in an assay buffer (50 mM Hepes, 150 mM NaCl, 5 mM MgCl2, 1 mM TCEP and 0.2 mg/mL BSA, pH 7.4 adjusted with NaOH) at 37 °C. Inhibitors at different concentrations were incubated with 10 nM HDAC1, 3 nM HDAC2 or 3 nM HDAC3 (final concentration) for at least 5 min. The reaction was started with the addition of the fluorogenic substrate (20 µM final concentration) and incubated for 30 min for HDAC2 and HDAC3 and 90 min for HDAC1. The reaction was stopped with a solution of 1 mg/mL trypsin and 20 µM SAHA in 1 mM HCl and incubated for 1 h at 37 °C. […] The received fluorescence intensities were normalized with uninhibited reaction as 100% and the reaction without enzyme as 0%. A nonlinear regression analysis was done to determine the IC50 value.

In data set [4] the target is T2, human HDAC1 (Homo sapiens, UniProt Q13547).
T2 construct: purchased ENZO Life Sciences AG (Lausen, CH)
T2 sequence (Q13547 whole entry): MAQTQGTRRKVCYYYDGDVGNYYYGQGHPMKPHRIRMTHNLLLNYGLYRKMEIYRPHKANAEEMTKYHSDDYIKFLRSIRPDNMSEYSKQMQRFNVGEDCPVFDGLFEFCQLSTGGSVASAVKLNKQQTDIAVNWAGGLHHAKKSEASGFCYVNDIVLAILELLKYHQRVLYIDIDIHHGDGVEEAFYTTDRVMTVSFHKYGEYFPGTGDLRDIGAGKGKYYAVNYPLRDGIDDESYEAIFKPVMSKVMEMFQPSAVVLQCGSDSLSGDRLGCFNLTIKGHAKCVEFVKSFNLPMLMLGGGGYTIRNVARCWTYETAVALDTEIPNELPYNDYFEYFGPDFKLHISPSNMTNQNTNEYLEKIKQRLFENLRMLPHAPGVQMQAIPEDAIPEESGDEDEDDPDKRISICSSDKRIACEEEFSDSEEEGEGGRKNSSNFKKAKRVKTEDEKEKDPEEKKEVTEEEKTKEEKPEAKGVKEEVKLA
As to the kind of experiment: In vitro HDAC1 inhibition assay, fluorogenic p53 peptide Ac-RHKK(Acetyl)-AMC. The following applies: for IC50: 10 nM HDAC1, 20 µM substrate, 90 min, 37 °C; for inhibition at 2 µM: read-out: HDAC1 % inhibition @ 2 µM. Type of data set: biochemical. The method, then:
as §1, §2

The target in data set [5] is T3, human HDAC8 (Homo sapiens, UniProt Q9BY41).
T3 construct: made in house
T3 sequence (Q9BY41 1-377): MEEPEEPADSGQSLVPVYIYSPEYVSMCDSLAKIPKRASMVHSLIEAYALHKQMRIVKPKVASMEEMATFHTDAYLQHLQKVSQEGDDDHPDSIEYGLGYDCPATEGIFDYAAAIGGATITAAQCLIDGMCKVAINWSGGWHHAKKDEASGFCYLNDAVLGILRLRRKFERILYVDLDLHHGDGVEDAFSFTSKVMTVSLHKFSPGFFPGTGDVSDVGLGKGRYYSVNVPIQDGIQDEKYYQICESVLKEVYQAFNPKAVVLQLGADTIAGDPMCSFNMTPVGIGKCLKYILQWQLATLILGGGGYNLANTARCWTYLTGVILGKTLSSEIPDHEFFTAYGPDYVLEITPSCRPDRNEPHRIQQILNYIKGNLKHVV
As to the kind of experiment: HDAC8 homogenous fluorescence assay with ZMAL substrate. Type of data set: biochemical. Conditions: read-out: HDAC8 (% Inhib.). The method, then:
as §1
Fluorescence intensity was measured at an excitation wavelength of 390 nm and an emission wavelength of 460 nm in a microtiter plate reader (BMG Polarstar).

Data set [6] deals with T4, human HDAC3/NCOR1 (Homo sapiens, UniProt O15379).
T4 construct: purchased ENZO Life Sciences AG (Lausen, CH)
T4 sequence (O15379 whole entry): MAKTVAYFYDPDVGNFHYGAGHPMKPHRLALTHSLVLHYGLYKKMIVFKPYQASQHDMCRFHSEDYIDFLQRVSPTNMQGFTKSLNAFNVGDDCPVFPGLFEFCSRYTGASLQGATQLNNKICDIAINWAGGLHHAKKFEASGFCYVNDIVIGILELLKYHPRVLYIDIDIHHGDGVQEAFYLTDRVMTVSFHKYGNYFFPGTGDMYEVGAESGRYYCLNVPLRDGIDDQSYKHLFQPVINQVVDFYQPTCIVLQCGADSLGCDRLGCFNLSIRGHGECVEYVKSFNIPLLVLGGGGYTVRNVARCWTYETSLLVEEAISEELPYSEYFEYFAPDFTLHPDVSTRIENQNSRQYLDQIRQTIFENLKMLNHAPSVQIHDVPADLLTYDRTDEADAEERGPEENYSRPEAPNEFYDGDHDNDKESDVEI
T4 sequence (O75376 395-489 partner limits assumed): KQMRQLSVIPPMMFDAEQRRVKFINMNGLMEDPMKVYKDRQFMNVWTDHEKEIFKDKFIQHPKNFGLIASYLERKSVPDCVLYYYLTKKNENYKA
Description: In vitro HDAC3 inhibition assay, fluorogenic p53 peptide Ac-RHKK(Acetyl)-AMC. The class given is biochemical. Conditions: for IC50: 3 nM HDAC3, 20 µM substrate, 30 min, 37 °C; for inhibition at 2 µM: read-out: HDAC3 % inhibition @ 2 µM. The method, then:
as §1, §2

The nature of data set [7]: in vitro. The following applies: human, HEK293 cells.
Description: The cells were incubated for 48 h with the HDACi at a concentration of 50 µM, and cell viability was determined by the Alamar Blue assay.
To determine the cytotoxicity of the developed compounds on the human epithelial kidney, cell line HEK293 was used. HEK293 cells (DSMZ Braunschweig, ACC305) were incubated at 37 °C in a humidified incubator with 5% CO2 in Dulbecco’s Modified Eagle Medium (DMEM) supplemented with 10% FCS and 5 mM glutamine. Cells were seeded out at 1.5 x 10^3 cells per well in a 96-well cell culture plate (TPP, Switzerland). The compounds to be tested were added immediately to the medium at 50 µM. After 24 h, Alamar Blue reagent (Invitrogen, CA) was added according to the manufacturer’s instructions and incubated again for 21 h before samples were analyzed. Detection of viable cells which convert the resazurine reagent into the highly fluorescent resorufin was performed by using a FLUOstarOPTIMA microplate reader (BMG Labtec) with the following filter set: Ex 530 nm/Em 590 nm. Measurements were performed in triplicate and data are means with standard deviation <12%.
The test system of data set [8] is HDAC1. Conditions: read-out: IC50 (HDAC1); previously reported, Figure 1; cited from earlier work.
The test system of data set [9] is MV4-11 cells. Description: Apoptosis in MV4-11 cells, annexin-V-FITC/PI flow cytometry. Type of data set: cell-based, human. The following applies: MV4-11 cells, 0.5 µM, 48 h. How it is done: We measured the induction of early (increased exposure of phosphatidylserine on the cell surface and therefore positive staining for annexin-V-FITC) and late apoptosis (positivity for annexin-V and accumulation of propidium iodide, PI) by flow cytometry.
All leukemic cells were kept in RPMI-1640 medium supplemented with 10% FBS and 1%penicillin/streptomycin (Sigma-Aldrich, Taufkirchen, Germany) under standard culture conditions at 37 °C and a 5% CO2 humidified atmosphere. Cells were authenticated as mentioned by us.
On the technique in general: In flow cytometry, cells or beads pass a laser one at a time.

As to `Nc1ccc(-c2ccccc2)cc1NC(=O)c1cccnc1` [IX], the IC50 was 11000 nM in data set [1] and 900 nM in data set [2].

For `Nc1ccccc1NC(=O)c1cnc(N2CCN(Cc3ccccn3)CC2)cn1` [19d, N-(2-Aminophenyl)-5-(4-(pyridin-2-ylmethyl)piperazin-1-yl)pyrazine-2-carboxamide], the IC50 in data set [3] stood at 1.43 ± 0.08 µM; in data set [4], 0.52 ± 0.07 µM; in data set [6], 1.06 ± 0.04 µM. Also, the inhibition at 1 µM in data set [5] was 0%. The viability at 48 h, 50 µM in data set [7] worked out at 67.7%.

In the case of `Cn1cc(CN2CCN(c3cnc(C(=O)Nc4ccccc4N)cn3)CC2)c2ccccc21` [19k, N-(2-aminophenyl)-5-(4-((1-methyl-1H-indol-3-yl)methyl)piperazin-1-yl)pyrazine-2-carboxamide], the half-inhibitory concentration (IC50) in data set [3] worked out at 0.56 ± 0.04 µM; in [4], 0.14 ± 0.02 µM; in [6], 0.59 ± 0.03 µM. Also, in data set [5], the inhibition at 1 µM turned out to be 0%. This compound registered a viability at 48 h, 50 µM in [7] of 71.4%.

Take `Nc1ccccc1NC(=O)c1cnc(N2CCN(CCc3ccc(Cl)cc3)CC2)cn1` [19b, N-(2-Aminophenyl)-5-(4-(4-chlorophenethyl)piperazin-1-yl)pyrazine-2-carboxamide]: the inhibition at 2 µM in [3] was determined as 30.3%; in data set [4], 25.8%; in data set [6], 65.2%. Also, in data set [5], the inhibition at 1 µM worked out at 3.4%. The compound further showed a viability at 48 h, 50 µM in data set [7] of 78.6%.

For Chidamide, the half-inhibitory concentration (IC50) is 95 nM in [8], 67 nM in [1] and 160 nM in data set [2].

With `Nc1ccccc1NC(=O)c1cnc(N2CCN(Cc3csc4ccccc34)CC2)cn1` [19e, N-(2-Aminophenyl)-5-(4-(benzo[b]thiophen-3-ylmethyl)piperazin-1-yl)pyrazine-2-carboxamide], the results for the IC50 in data set [3], in data set [4] and in [6] were 0.71 ± 0.04 µM, 0.21 ± 0.07 µM and 0.84 ± 0.03 µM, respectively. Also, the inhibition at 1 µM in data set [5] came to 0%. Further, the viability at 48 h, 50 µM in data set [7] was 50.9%.

Take `Nc1ccc(-c2cccs2)cc1NC(=O)c1ccc(CNC(=O)OCc2cccnc2)cc1` [VII]: the IC50 in [8] is […]; in data set [2], 100 nM.

Consider `Nc1ccccc1NC(=O)c1cnc(N2CCN(Cc3ccccn3)CC2)nc1` [19c, N-(2-aminophenyl)-2-(4-(pyridin-2-yl-methyl)piperazin-1-yl)pyrimidine-5-carboxamide], for which the inhibition at 2 µM came to 20.1% in [3], 33.9% in data set [4] and 26.8% in [6]. The inhibition at 1 µM in [5] came to 0%. The same compound came in with a viability at 48 h, 50 µM in [7] of 78.7%.

Consider `Nc1ccc(-c2ccccc2F)cc1NC(=O)c1cnc(N2CCN(CCc3c[nH]c4ccccc34)CC2)cn1` [21c, 5-(4-(2-(1H-indol-3-yl)ethyl)piperazin-1-yl)-N-(4-amino-2’-fluoro-[1,1’-biphenyl]-3-yl)pyrazine-2-carboxamide], for which the half-inhibitory concentration (IC50) in [3] was determined as 0.76 ± 0.04 µM; in data set [4] it was 0.76 ± 0.07 µM; in data set [6], 15 ± 1 µM. Further, in data set [5], the inhibition at 1 µM is 0%. In [7], this compound displayed a viability at 48 h, 50 µM of 72.3%.

Turning to `Nc1ccc(-c2ccc(F)cc2)cc1NC(=O)c1cnc(N2CCN(CCc3c[nH]c4ccccc34)CC2)cn1` [21b, 5-(4-(2-(1H-indol-3-yl)ethyl)piperazin-1-yl)-N-(4-amino-4’-fluoro-[1,1’-biphenyl]-3-yl)pyrazine-2-carboxamide], the figures for the IC50 in [3] and in data set [4] were 0.77 ± 0.06 µM and 0.7 ± 0.08 µM, respectively. Besides, the inhibition at 1 µM in data set [5] and in [6] (read-out: HDAC3 % inhibition @ 1 µM) was 0% in each case. In data set [7], this compound gave a viability at 48 h, 50 µM of 71%.

Take `Cn1cc(CN2CCN(c3ncc(C(=O)Nc4ccccc4N)cn3)CC2)c2ccccc21` [19j, N-(2-aminophenyl)-2-(4-((1-methyl-1H-indol-3-yl)methyl)piperazin-1-yl)pyrimidine-5-carboxamide]: the results for the 50% inhibitory concentration (IC50) in data set [3], in [4] and in data set [6] were 0.93 ± 0.04 µM, 0.45 ± 0.06 µM and 1.75 ± 0.06 µM, respectively. The inhibition at 1 µM in data set [5] came to 0%. Further, the viability at 48 h, 50 µM in data set [7] was found to be 62.5%.

`CN1CCN(c2cnc(C(=O)Nc3cc(-c4ccsc4)ccc3N)cn2)CC1` [29a, N-(2-amino-5-(thiophen-3-yl)phenyl)-5-(4-methylpiperazin-1-yl)pyrazine-2-carboxamide]: the results for the IC50 in [3], in data set [4] and in data set [6] were 0.18 ± 0.06 µM, 0.11 ± 0.01 µM and 4.4 ± 0.1 µM, respectively. Besides, the viability at 48 h, 50 µM in [7] turned out to be 65.8%.

As for `Cn1cc(CCN2CCN(c3cnc(C(=O)Nc4cc(F)ccc4N)cn3)CC2)c2ccccc21` [23c, N-(2-Amino-5-fluorophenyl)-5-(4-(2-(1-methyl-1H-indol-3-yl)ethyl)piperazin-1-yl)pyrazine-2-carboxamide], the IC50 is 1.37 ± 0.08 µM in data set [3], 0.33 ± 0.02 µM in data set [4] and 0.59 ± 0.04 µM in data set [6]. Also, the viability at 48 h, 50 µM in [7] was found to be 55.7%.

In the case of `Nc1ccccc1NC(=O)c1cnc(N2CCN(CCc3ccccc3)CC2)cn1` [19a, N-(2-Aminophenyl)-5-(4-phenethylpiperazin-1-yl)pyrazine-2-carboxamide], the IC50 turned out to be 0.8 ± 0.07 µM in data set [3], 0.51 ± 0.05 µM in [4] and 1.12 ± 0.07 µM in data set [6]. In addition, the inhibition at 1 µM in [5] came to 0%. The compound further returned a viability at 48 h, 50 µM in data set [7] of 73.1%.

In the case of `Nc1cc(F)ccc1NC(=O)c1cnc(N2CCNCC2)cn1` [23a, N-(2-Amino-4-fluorophenyl)-5-(piperazin-1-yl)pyrazine-2-carboxamide], the IC50 came to 2.2 ± 0.2 µM in [3], 3.3 ± 0.18 µM in data set [4] and 0.4 ± 0.01 µM in data set [6]. In addition, in [5], the inhibition at 1 µM was found to be 0%. The same compound registered a viability at 48 h, 50 µM in data set [7] of 67%.

In the case of `Nc1ccccc1NC(=O)c1cnc(N2CCN(CCc3c[nH]c4ccccc34)CC2)cn1` [19g, 5-(4-(2-(1.H-indol-3-yl)ethyl)piperazin-1-yl)-N-(2-aminophenyl)pyrazine-2-carboxamide], the results for the IC50 in data set [3], in [4] and in data set [6] were 0.96 ± 0.05 µM, 0.31 ± 0.03 µM and 0.49 ± 0.06 µM, respectively. The inhibition at 1 µM in data set [5] came out at 0%. In addition, the viability at 48 h, 50 µM in data set [7] was determined as 71.8%.

For `Nc1ccc(-c2cccs2)cc1NC(=O)c1cnc(N2CCNCC2)cn1` [29b, N-(2-Amino-5-(thiophen-2-yl)phenyl)-5-(piperazin-1-yl)pyrazine-2-carboxamide], the half-maximal inhibitory concentration (IC50) in [3] came to 0.26 ± 0.01 µM; in [4] it was 0.07 ± 0.01 µM; in data set [6] it was 6.1 ± 0.7 µM. Also, the “induction of early and late apoptosis” value in [9] is “apoptosis in about half of the MV4-11 cell population”. The viability at 48 h, 50 µM in [7] came out at 2.4%.

For `Cn1cc(CN2CCN(c3cnc(C(=O)Nc4cc(F)ccc4N)cn3)CC2)c2ccccc21` [23b, 4-(5-((2-Amino-5-fluorophenyl)carbamoyl)pyrazin-2-yl)-1-((1-methyl-1H-indol-3-yl)methyl)piperazin-1-ium chloride], the IC50 is 0.5 ± 0.03 µM in data set [3], 0.27 ± 0.03 µM in data set [4] and 0.5 ± 0.02 µM in data set [6]. Moreover, the inhibition at 1 µM in data set [5] came to 38%. Moreover, the viability at 48 h, 50 µM in data set [7] came to 58.7%.

As to `Nc1cc(Cl)ccc1NC(=O)c1cnc(N2CCN(CCc3c[nH]c4ccccc34)CC2)cn1` [19i, 5-(4-(2-(1H-indol-3-yl)ethyl)piperazin-1-yl)-N-(2-amino-4-chlorophenyl)pyrazine-2-carboxamide], the IC50 in data set [3] amounted to 2.7 ± 0.2 µM; in [4] it was 3 ± 0.2 µM; in data set [6], 1.9 ± 0.1 µM. The viability at 48 h, 50 µM in [7] was 47.5%.

The term IC50 denotes the concentration that gives 50% inhibition. The viability is a per cent measure of how many cells are alive, often set against a control.
